From patent US12103943B2, “Development of novel clofarabine analogs for cancer therapy” (Southern Research Institute, priority 2021, dated 2024) come the findings set out here.

“Also recorded” adds a separate entry of the source. Like-named read-outs stand apart in the source and are kept apart here.

For one series, the system named is MDA-MB-231. Briefly: Cell viability after 72-hour incubation, CellTiter-Glo 2.0. In kind it is cell-based. The note with it: Homo sapiens, read-out: IC50 (μM) MDA-MB-231. The method, then: (§1) Select tumor lines representative of triple negative breast cancer (MDA-MB-231 and BT549) were identified for testing of efficacy of compounds. Assessment of compound efficacy was determined by a test of cell viability after 72-hour incubation with compound using CellTiter-Glo 2.0 (Promega). […] Selectivity index is defined as the ratio of the calculated IC50 in normal epithelial lines to the calculated IC50 in a cancerous cell line. For CellTiter-Glo cells are plated in a 96-well, opaque, flat-bottomed black plate. Cells are seeded at 5,000 cells per well and allowed to incubate for 6 hours to allow for attachment. Cells are then dosed in a 12-point serial dilution spanning a range of 50 μM to 25 nM. Clofarabine is used as a positive control for all cell lines, and each plate contains media only, and DMSO controls as negatives for each compound tested. Final volume for both cells and compound should be 100 uL. After 72-hour exposure to compound, plates are removed from the incubator and allowed to equilibrate to room temperature for 30 minutes. An equal volume of CellTiter-Glo 2.0 reagent is added to media present in well (100 uL). Plates are then placed onto an orbital shaker and allow to incubate while shaking for 10 to 15 minutes. Raw luminescence readings are obtained. Log transformations of the background subtracted data are analyzed using a 4PL-fit model, and IC50 values are calculated based on the sigmoidal fit of the non-linear regression model.
In general terms: In ATP-based viability assays light output follows the ATP content of the culture.

Another series relates to MDA-MB-231 cells. The experiment in a line: In vivo efficacy in a solid tumor, triple negative breast cancer model. As to conditions: 25 mg/kg intraperitoneal for 2 weeks, s.c. MDA-MB-231 tumors in athymic nude mice, FIG. 1. As for the experimental part: Athymic nude mice (Crl:Nu(NCr)-Fox^1nu; Charles River) were injected s.c. in the right flank with 100 uL MDA-MB-231 cells in 1:1 RPMI 1640 and Cultrex BME Type 3 (1×10^6 cells/mouse). Tumors were allowed to grow until 500 mm^3 (Tumor Volume= […]×Length×Width^2), at which point mice were dosed […] for 2 weeks by intraperitoneal injection with either vehicle (N-Methyl-2-Pyrrolidone (NMP), Polyethylene glycol 400 (PEG400), and saline at a ratio of 1:2:2 v/v/v), 25 mg/kg of Clofarabine, or 25 mg/kg of compound 5. Tumor volumes were measured twice weekly, and bodyweight was measured daily during the dosing period. This was a pilot test to determine anti-tumor growth activity, so regrowth was not measured and the study was terminated two days after the final dose.

The next series has as its system BT549. Briefly: Cell viability after 72-hour incubation, CellTiter-Glo 2.0. As to conditions: Homo sapiens, read-out: IC50 (μM) BT549. In kind it is cell-based. The method, then:
as §1

Series [1] is described as follows: Basic dose escalation test for tolerance of drug concentration. In kind it is in vivo. As to conditions: dose escalation 25, 40, 55 mg/kg, Q1D×5 with 2-day washout, B6C3F1/N female mice, FIG. 2. The method, then:
Briefly, a cohort of B6C3F1/N female mice were split into three dosing arms: Control (N=2), Clofarabine (N=3), and compound 5 (N=3). The dosing schedule was set based on previous and historical dosing with nucleosides, Q1D×5 with a 2-day washout period before dose escalation. The selected dose concentrations were 25 mg/kg, 40 mg/kg, and 55 mg/kg. Blood was collected weekly by submandibular bleed for ALT and AST measurements, and at necropsy major organs were examined for gross toxicity.

Setting [2] is: MDA-MB-231 triple negative breast cancer cells, 72-hour exposure, CellTiter-Glo 2.0, 50 μM to 25 nM.
Where [3] appears, read: BT-549, BT549 triple negative breast cancer cells, 72-hour exposure, CellTiter-Glo 2.0, 50 μM to 25 nM.

What is called IC50 is the point on the concentration scale where inhibition reaches its midpoint. On to `CC(C)Nc1nc(C(F)(F)F)nc2c1ncn2[C@@H]1O[C@H](CO)[C@@H](O)[C@@H]1F` [Compound 7a, (2R,3R,4S,5R)-4-fluoro-2-(hydroxymethyl)-5-(6-(isopropylamino)-2-(trifluoromethyl)purin-9-yl)tetrahydrofuran-3-ol], for which, in the series on MDA-MB-231 (setting [2]), the IC50 is 20.5 µM.

Take `Nc1nc(C(F)(F)F)nc2c1ncn2[C@@H]1O[C@H](CO)[C@@H](O)[C@@H]1F` [Compound 5, (2R,3R,4S,5R)-5-[6-amino-2-(trifluoromethyl)purin-9-yl]-4-fluoro-2-(hydroxymethyl)tetrahydrofuran-3-ol]: the “tumor volume / anti-tumor growth activity” value in the series with MDA-MB-231 cells is “effectively reduces tumor volume; also recorded: anti-growth efficacy”. In addition, the concentration for half-maximal inhibition (IC50) with MDA-MB-231 (setting [2]) was 4.16 µM; in the series on BT549 (setting [3]) it was 0.018 µM.

For the compound `OC[C@H]1O[C@@H](n2cnc3c(NC4CCCC4)nc(C(F)(F)F)nc32)[C@@H](F)[C@@H]1O` [Compound 7g, (2R,3R,4S,5R)-5-[6-(cyclopentylamino)-2-(trifluoromethyl)purin-9-yl]-4-fluoro-2-(hydroxymethyl)tetrahydrofuran-3-ol], the IC50 in the series on BT549 (setting [3]) amounted to 5.89 µM.

Turning to `CC(Nc1nc(C(F)(F)F)nc2c1ncn2[C@@H]1O[C@H](CO)[C@@H](O)[C@@H]1F)C1CC1` (stereo partly drawn) [Compound 7d, (2R,3R,4S,5R)-5-[6-(1-cyclopropylethylamino)-2-(trifluoromethyl)purin-9-yl]-4-fluoro-2-(hydroxymethyl)tetrahydrofuran-3-ol], the IC50 stood at 20.5 µM in the series with MDA-MB-231 (setting [2]) and 15.1 µM in the series with BT549 (setting [3]).

In the case of `CC(C)C(=O)OC[C@H]1O[C@@H](n2cnc3c(N)nc(C(F)(F)F)nc32)[C@@H](F)[C@@H]1O` [Compound 15, [(2R,3R,4S,5R)-5-[6-amino-2-(trifluoromethyl)purin-9-yl]-4-fluoro-3-hydroxy-tetrahydrofuran-2-yl]methyl 2-methylpropanoate], the IC50 in the series with MDA-MB-231 (setting [2]) is 7.12 µM; in the series with BT549 (setting [3]), more than 50 µM.

For the compound `Nc1nc(Cl)nc2c1ncn2[C@@H]1O[C@H](CO)[C@@H](O)[C@@H]1F` [Clofarabine, 2-chloro-2′-fluoro-2′-deoxy-9-β-D-arabinofuranosyladenine], in series [1], the “tolerance of drug concentration (toxicity, survival)” value is reported as “Toxicity was seen immediately following the 55 mg/kg dose”.

Regarding `OC[C@H]1O[C@@H](n2cnc3c(NC4CC4)nc(C(F)(F)F)nc32)[C@@H](F)[C@@H]1O` [Compound 7c, (2R,3R,4S,5R)-5-[6-(cyclopropylamino)-2-(trifluoromethyl)purin-9-yl]-4-fluoro-2-(hydroxymethyl)tetrahydrofuran-3-ol], the IC50 in the series on MDA-MB-231 (setting [2]) was 2.58 µM.

Take `CCCCCCCCCCCC(=O)Nc1nc(C(F)(F)F)nc2c1ncn2[C@@H]1O[C@H](CO)[C@@H](O)[C@@H]1F` [Compound 10, N-[9-[(2R,3S,4R,5R)-3-fluoro-4-hydroxy-5-(hydroxymethyl)tetrahydrofuran-2-yl]-2-(trifluoromethyl)purin-6-yl]dodecanamide]: in the series with MDA-MB-231 (setting [2]), the half-maximal inhibitory concentration (IC50) is 3.19 µM.

In the case of `OC[C@H]1O[C@@H](n2cnc3c(NC4CCC4)nc(C(F)(F)F)nc32)[C@@H](F)[C@@H]1O` [Compound 7e, (2R,3R,4S,5R)-5-[6-(cyclobutylamino)-2-(trifluoromethyl)purin-9-yl]-4-fluoro-2-(hydroxymethyl)tetrahydrofuran-3-ol], in the series on BT549 (setting [3]), the IC50 came to 13.8 µM.

As to `CC1(Nc2nc(C(F)(F)F)nc3c2ncn3[C@@H]2O[C@H](CO)[C@@H](O)[C@@H]2F)CCC1` [Compound 7f, (2R,3R,4S,5R)-4-fluoro-2-(hydroxymethyl)-5-[6-[(1-methylcyclobutyl)amino]-2-(trifluoromethyl)purin-9-yl]tetrahydrofuran-3-ol], the results for the IC50 with MDA-MB-231 (setting [2]) and in the series on BT549 (setting [3]) were more than 50 µM and 13.5 µM, respectively.

As for `CC[C@@H](C)[C@@H](N)C(=O)OC[C@H]1O[C@@H](n2cnc3c(N)nc(C(F)(F)F)nc32)[C@@H](F)[C@@H]1O` [Compound 18, [(2R,3R,4S,5R)-5-[6-amino-2-(trifluoromethyl)purin-9-yl]-4-fluoro-3-hydroxy-tetrahydrofuran-2-yl]methyl (2R,3R)-2-amino-3-methyl-pentanoate], the IC50 in the series on MDA-MB-231 (setting [2]) was 11.4 µM; in the series on BT549 (setting [3]) it was more than 50 µM.

Consider `CCC(CC)Nc1nc(C(F)(F)F)nc2c1ncn2[C@@H]1O[C@H](CO)[C@@H](O)[C@@H]1F` [Compound 7b, (2R,3R,4S,5R)-5-[6-(1-ethylpropylamino)-2-(trifluoromethyl)purin-9-yl]-4-fluoro-2-(hydroxymethyl)tetrahydrofuran-3-ol], for which the IC50 with MDA-MB-231 (setting [2]) is not below 67 µM; in the series with BT549 (setting [3]) it was more than 50 µM.

In the case of `COC(=O)[C@H](C)NP(=O)(OC[C@H]1O[C@@H](n2cnc3c(N)nc(C(F)(F)F)nc32)C(F)C1O)Oc1ccccc1` (mixture of isomers) [Compound 12, methyl (2S)-2-[[phenoxy-[[rac-(2R,3R,4S,5R)-5-[6-amino-2-(trifluoromethyl)purin-9-yl]-4-fluoro-3-hydroxy-tetrahydrofuran-2-yl]methoxy]phosphoryl]amino]propanoate], the IC50 stood at 13.7 µM in the series with MDA-MB-231 (MDA-MB-231, 72 h) and 13.1 µM in the series on BT549 (BT-549, 72 h).
